Entries after “also recorded” stand apart in the source; their conditions may differ. Read-outs that look alike come from different tables or passages of the source.
Key:
[1] = tested on: cholera toxin B (CTXB) endocytosis in A549 cells; assay type: cell-based; settings: 10 μM
[2] = tested on: organelle acidification in A549 cells; assay type: cell-based; settings: 10 μM, 1 h
A549 cells = assay type: cell-based, Human
Method: Human lung epithelial cells (A549) were seeded in a 96-well optical-bottom plate. When the cells reached 70-80% confluency, the cells were treated with the compounds (DPUDs and DPTUD) dissolved in DMSO) (50 ∥M) for 12 h at 37° C. Following treatment, the cells were washed with PBS and fixed with 4% formaldehyde for 20 min at room temperature. Nucleus was stained with Hoechst diluted in PBS (1:10000). High-content microscopy and image analysis were performed to quantitate cell number (FIG. 3). All data are represented as mean±SD. The P-value was determined using one-way ANOVA with multiple comparisons w.r.t. DMSO. ns: P>0.05, *P<0.05, **P<0.01, ***P<0.001, ****P<0.0001.

[3] = tested on: EGF endocytosis in A549 cells; assay type: cell-based; settings: 10 μM
[4] = tested on: transferrin endocytosis in A549 cells; assay type: cell-based; settings: 10 μM
[5] = tested on: SARS-CoV-2 Delta (B.1.617.2) and Omicron (B.1.1.529) strains; assay: Infection of Vero-E6 cells with additional SARS-CoV-2 strains; assay type: cell-based
IAV (WSN) [6] = assay type: in vivo, C57BL/6 mice
IAV (X-31) = assay type: cell-based, influenza A virus; settings: 10 μM, A549 cells
IAV (WSN) [7] = assay type: cell-based, influenza A virus
cellular endocytosis = settings: cited from earlier work

In the case of `FC(F)(F)c1cc(NC(=S)Nc2cc(C(F)(F)F)cc(C(F)(F)F)c2)cc(C(F)(F)F)c1` [DPTUD, 1,3-bis(3,5-bis(trifluoromethyl)phenyl)thiourea], the “cholera toxin B (CTXB) uptake” value [1] is reported as “significantly blocked”, the “organelle acidification (LysoTracker-positive signal)” value [2] is reported as “robustly inhibited” and the “cytotoxicity” value (A549 cells; 50 μM, 12 h, A549 cells) is reported as “did not show cytotoxicity”. For the same molecule, the EGF uptake [3] was “significantly blocked” and the transferrin uptake [4] was “significantly blocked”.
In the case of `O=C(Nc1cc(C(F)(F)F)cc(C(F)(F)F)c1)Nc1cc(C(F)(F)F)cc(C(F)(F)F)c1` [DPUD-1, 1,3-bis(3,5-bis(trifluoromethyl)phenyl)urea], the “effect on infection with SARS-CoV-2 Delta and Omicron” value [5] is reported as “highly effective; also recorded: Reduced infection”, the “body weight recovery of the infected mice” value (IAV (WSN) [6]; […], 1 mg/kg i.p. twice daily 5 days) is reported as “most effective” and the “lung viral titres (RT-PCR of NP gene and plaque assay)” value (IAV (WSN) [6]; mouse, in vivo) is reported as “significant reduction”. For the same molecule, the “survival of infected mice” value (IAV (WSN) [6]; mouse, in vivo) was “Better survival”, the “virus particle internalization in live cells” value (IAV (X-31)) was “majority of the virus particles failed to enter the cells” and the “IAV (WSN) titre in virus plaque assay” value (IAV (WSN) [7]) was “significant reduction”.
With `O=C(Nc1ccc(C(F)(F)F)cc1)Nc1ccc(C(F)(F)F)cc1` [DPUD-2, 1,3-bis(4-(trifluoromethyl)phenyl)urea] the “effect on infection with SARS-CoV-2 Delta and Omicron” value [5] was “highly effective; also recorded: Reduced infection”.
With `O=C(Nc1cc(F)cc(F)c1)Nc1cc(F)cc(F)c1` [DPUD-16, 1,3-bis(3,5-difluorophenyl)urea] the “effect on infection with SARS-CoV-2 Delta and Omicron” value [5] was “Reduced infection”.
With `O=C(Nc1ccc(OC(F)(F)F)cc1)Nc1ccc(OC(F)(F)F)cc1` [DPUD-20, 1,3-bis(4-(trifluoromethoxy)phenyl)urea] the “effect on infection with SARS-CoV-2 Delta and Omicron” value [5] was “Reduced infection”.
For `O=C(Nc1cc(Br)cc(Br)c1)Nc1cc(Br)cc(Br)c1` [DPUD-23, 1,3-bis(3,5-dibromophenyl)urea], the “effect on infection with SARS-CoV-2 Delta and Omicron” value [5] was “highly effective; also recorded: Reduced infection”.
For `CN(C)CCCN1c2ccccc2Sc2ccc(Cl)cc21` [chlorpromazine, reference compound], the “inhibitory concentration of known endocytosis inhibitor” value (cellular endocytosis; 7× higher than the derivatives) is listed as 70 µM and the cytotoxicity (A549 cells; human) is listed as > 75%.
For methyl-β-cyclodextrin, the “inhibitory concentration of known endocytosis inhibitor” value (cellular endocytosis; 100× higher than the derivatives) is listed as 1000 µM.

From US20240116863A1, “DIPHENYL THIOUREA AND DIPHENYL UREA DERIVATIVES AS INHIBITORS OF ENDOCYTOSIS” (priority 2022, published 2024)
